From patent publication US10947252B2, “Inhibitors of KEAP1-Nrf2 protein-protein interaction” (Janssen Pharmaceutica NV, priority 2018, dated 2021)
Counter-ions that a name gives are not always drawn.

Key:
[1] = biological target: Kelch domain of human KEAP1 (321-624 aa) (Homo sapiens (Human), UniProt Q14145); experiment: KEAP1 KELCH ThermoFluor binding assay; conditions: KEAP Kelch […], 1,8-ANS, pH 7.0, average of results obtained, read-out: Tf Kd;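 further: Ligand-induced melting temperature shift of E. coli-expressed KEAP1 Kelch protein, Kd estimated from concentration-response curves of ΔTm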
Chain of Kelch domain of human KEAP1 (321-624 aa) (Q14145 321-624): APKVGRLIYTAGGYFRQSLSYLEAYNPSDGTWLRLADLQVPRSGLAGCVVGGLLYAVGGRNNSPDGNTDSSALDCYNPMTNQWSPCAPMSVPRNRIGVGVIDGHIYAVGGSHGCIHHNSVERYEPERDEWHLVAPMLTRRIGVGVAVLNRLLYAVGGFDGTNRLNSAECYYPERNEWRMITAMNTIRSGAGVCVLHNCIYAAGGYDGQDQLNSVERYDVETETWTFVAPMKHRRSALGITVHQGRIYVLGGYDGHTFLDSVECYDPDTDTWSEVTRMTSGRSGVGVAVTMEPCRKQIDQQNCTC

[2] = test system: Glo-Response ARE-luc2P HEK293 cell line; experiment: ARE luciferase reporter cell-based assay; conditions: Homo sapiens, HEK293, 24 h, average of results obtained;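 further: luciferase signal tracks Nrf2 activation of the ARE once compounds disrupt KEAP1-Nrf2 binding, read with One-Glo reagent, DMSO serving as low control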

SMILES	Kd [1] [nM]	EC50 [2] [nM]
CCn1nnc2c(C)c([C@@H](CC(=O)O)c3ccc(C)c(CN4CC5(CC5)Oc5ncccc5S4(=O)=O)n3)ccc21 (single isomer, unassigned) [Example 245, (*R)-3-(6-((1′,1′-Dioxidospiro[cyclopropane-1,4′-pyrido[2,3-b][1,4,5]oxathiazepin]-2′(3′H)-yl)methyl)-5-methylpyridin-2-yl)-3-(1-ethyl-4-methyl-1H-benzo[d][1,2,3]triazol-5-yl)propanoic Acid]	< 1	140
Cc1cnc2c(c1)S(=O)(=O)N(Cc1cc([C@@H](c3ccn4c(C(F)(F)F)nnc4c3C)C(C)(C)C(=O)O)ccc1C)CC1(CNC1)O2 (single isomer, unassigned) [Example 342, (*S)-2,2-Dimethyl-3-(4-methyl-3-((8′-methyl-1′,1′-dioxidospiro[azetidine-3,4′-pyrido[2,3-b][1,4,5]oxathiazepin]-2′(3′H)-yl)methyl)phenyl)-3-(8-methyl-3-(trifluoromethyl)-[1,2,4]triazolo[4,3-a]pyridin-7-yl)propanoic Acid]	< 1	5.6
CCn1nnc2c(C)c([C@@H](c3ccc(C)c(CN4CC5(CCOCC5)Oc5ncccc5S4(=O)=O)c3)C(C)(C)C(=O)O)ccc21 (single isomer, unassigned) [Example 16, (*R)-3-(3-((1′,1′-Dioxido-2,3,5,6-tetrahydrospiro[pyran-4,4′-pyrido[2,3-b][1,4,5]oxathiazepin]-2′(3′H)-yl)methyl)-4-methylphenyl)-3-(1-ethyl-4-methyl-1H-benzo[d][1,2,3]triazol-5-yl)-2,2-dimethylpropanoic Acid]	838	233
CCn1nnc2c(C)c(C(CC(=O)O)c3ccc(C)c(CN4C[C@H]5CCCN5c5ncccc5S4(=O)=O)c3)ccc21 (stereo partly drawn) [Example 20, 3-(3-(((R)-5,5-Dioxido-7a,8,9,10-tetrahydropyrido[2,3-f]pyrrolo[2,1-d][1,2,5]thiadiazepin-6(7H)-yl)methyl)-4-methylphenyl)-3-(1-ethyl-4-methyl-1H-benzo[d][1,2,3]triazol-5-yl)propanoic Acid and its Trifluoroacetic Acid Salt]	0.081	6.3
Cc1ccc([C@H](CC(=O)O)c2ccc3c(nnn3CC3CC3)c2C(F)F)cc1CN1C[C@@H]2CCCCN2c2ncccc2S1(=O)=O (single isomer, unassigned) [Example 172, (*S)-3-(1-(Cyclopropylmethyl)-4-(difluoromethyl)-1H-benzo[d][1,2,3]triazol-5-yl)-3-(3-(((*S)-5,5-dioxido-7,7a,8,9,10,11-hexahydro-6H-dipyrido[2,1-d:2′,3′-f][1,2,5]thiadiazepin-6-yl)methyl)-4-methylphenyl)propanoic Acid]	< 1	19
Cc1ccc([C@H](CC(=O)O)c2ccc3c(nnn3C3CC3)c2C)cc1CN1C[C@H]2CCCN2c2ncccc2S1(=O)=O (single isomer, unassigned) [Example 210, (*S)-3-(1-Cyclopropyl-4-methyl-1H-benzo[d][1,2,3]triazol-5-yl)-3-(3-(((R)-5,5-dioxido-7a,8,9,10-tetrahydropyrido[2,3-f]pyrrolo[2,1-d][1,2,5]thiadiazepin-6(7H)-yl)methyl)-4-methylphenyl)propanoic Acid]	< 1	7.7
Cc1ccc([C@H](CC(=O)O)c2ccn3c(C(F)(F)F)nnc3c2C)nc1CN1C[C@@H]2CCCCN2c2ncc(C#N)cc2S1(=O)=O (single isomer, unassigned) [Example 37, (*R)-3-(6-(((*S)-3-Cyano-5,5-dioxido-7,7a,8,9,10,11-hexahydro-6H-dipyrido[2,1-d:2′,3′-f][1,2,5]thiadiazepin-6-yl)methyl)-5-methylpyridin-2-yl)-3-(8-methyl-3-(trifluoromethyl)-[1,2,4]triazolo[4,3-a]pyridin-7-yl)propanoic Acid]	< 1	25.7

Now from value to compound, other results behind:

Kd [1] [nM]	SMILES	EC50 [2] [nM]
< 1	Cc1ccc([C@@H](CC(=O)O)c2ccn3c(C(F)F)nnc3c2C)cc1CN1CC2(CC2)Oc2ncccc2S1(=O)=O (single isomer, unassigned) [Example 474, (*R)-3-(3-(Difluoromethyl)-8-methyl-[1,2,4]triazolo[4,3-a]pyridin-7-yl)-3-(3-((1′,1′-dioxidospiro[cyclopropane-1,4′-pyrido[2,3-b][1,4,5]oxathiazepin]-2′(3′H)-yl)methyl)-4-methylphenyl)propanoic Acid]	1580
1640	Cc1ccc([C@H](c2ccn3c(C(F)F)nnc3c2C)C(C)(C)C(=O)O)cc1CN1CC2(CCOCC2)Oc2nc(OCCN3CCOCC3)ccc2S1(=O)=O (single isomer, unassigned) [Example 580, (*R)-3-(3-(Difluoromethyl)-8-methyl-[1,2,4]triazolo[4,3-a]pyridin-7-yl)-2,2-dimethyl-3-(4-methyl-3-((7′-(2-morpholinoethoxy)-1′,1′-dioxido-2,3,5,6-tetrahydrospiro[pyran-4,4′-pyrido[2,3-b][1,4,5]oxathiazepin]-2′(3′H)-yl)methyl)phenyl)propanoic Acid]	3240
1230	Cc1cnc2c(c1)S(=O)(=O)N(Cc1cc([C@H](c3ccn4c(C(F)(F)F)nnc4c3C)C(C)(C)C(=O)O)ccc1C)C[C@]1(CCOC1)O2 (single isomer, unassigned) [Example 387, (*R)-2,2-Dimethyl-3-(4-methyl-3-(((*S)-8′-methyl-1′,1′-dioxido-4,5-dihydro-2H-spiro[furan-3,4′-pyrido[2,3-b][1,4,5]oxathiazepin]-2′(3′H)-yl)methyl)phenyl)-3-(8-methyl-3-(trifluoromethyl)-[1,2,4]triazolo[4,3-a]pyridin-7-yl)propanoic Acid]	270
< 1	Cc1ccc([C@@H](CC(=O)O)c2ccn3c(C(F)F)nnc3c2C)cc1CN1C[C@@H]2CCCCN2c2ncccc2S1(=O)=O (single isomer, unassigned) [Example 448, (*R)-3-(3-(Difluoromethyl)-8-methyl-[1,2,4]triazolo[4,3-a]pyridin-7-yl)-3-(3-(((*S)-5,5-dioxido-7,7a,8,9,10,11-hexahydro-6H-dipyrido[2,1-d:2′,3′-f][1,2,5]thiadiazepin-6-yl)methyl)-4-methylphenyl)propanoic Acid]	218
59.4	Cc1cnc2c(c1)S(=O)(=O)N(Cc1cc([C@H](CC(=O)O)c3ccn4c(C(F)(F)F)nnc4c3C)cnc1C)CC1(CC1)O2 (single isomer, unassigned) [Example 565, (*R)-3-(8-Methyl-3-(trifluoromethyl)-[1,2,4]triazolo[4,3-a]pyridin-7-yl)-3-(6-methyl-5-((8′-methyl-1′,1′-dioxidospiro[cyclopropane-1,4′-pyrido[2,3-b][1,4,5]oxathiazepin]-2′(3′H)-yl)methyl)pyridin-3-yl)propanoic Acid]	> 20000
1.19	Cc1ccc([C@@H](CC(=O)O)c2ccn3c(C(F)F)nnc3c2C)cc1CN1C[C@@H]2COCCN2c2ncccc2S1(=O)=O (single isomer, unassigned) [Example 459, (*R)-3-(3-(Difluoromethyl)-8-methyl-[1,2,4]triazolo[4,3-a]pyridin-7-yl)-3-(3-(((*R)-5,5-dioxido-7a,8,10,11-tetrahydro-[1,4]oxazino[3,4-d]pyrido[2,3-f][1,2,5]thiadiazepin-6(7H)-yl)methyl)-4-methylphenyl)propanoic Acid]	203
4.28	CCn1nnc2c(C)c([C@H](c3cc(CN4CC5(CNC5)Oc5ncc(C)cc5S4(=O)=O)c(C)cn3)C(C)(C)C(=O)O)ccc21 (single isomer, unassigned) [Example 595, (*S)-3-(1-Ethyl-4-methyl-1H-benzo[d][1,2,3]triazol-5-yl)-2,2-dimethyl-3-(5-methyl-4-((8′-methyl-1′,1′-dioxidospiro[azetidine-3,4′-pyrido[2,3-b][1,4,5]oxathiazepin]-2′(3′H)-yl)methyl)pyridin-2-yl)propanoic Acid]	139
< 1	Cc1ccc([C@@H](c2ccn3c(C(F)F)nnc3c2C)C(C)(C)C(=O)O)cc1CN1CC2(CCOCC2)Oc2nc(OCCN3CCOCC3)ccc2S1(=O)=O (single isomer, unassigned) [Example 579, (*S)-3-(3-(Difluoromethyl)-8-methyl-[1,2,4]triazolo[4,3-a]pyridin-7-yl)-2,2-dimethyl-3-(4-methyl-3-((7′-(2-morpholinoethoxy)-1′,1′-dioxido-2,3,5,6-tetrahydrospiro[pyran-4,4′-pyrido[2,3-b][1,4,5]oxathiazepin]-2′(3′H)-yl)methyl)phenyl)propanoic Acid]	27.8
568	Cc1ccc([C@H](c2ccn3c(C(F)(F)F)nnc3c2C)C(C)(C)C(=O)O)cc1CN1CC2(CC2)Oc2nc(OCCN3CCC(F)CC3)c(C)cc2S1(=O)=O (single isomer, unassigned) [Example 662, (*S)-3-(3-((7′-(2-(4-fluoropiperidin-1-yl)ethoxy)-8′-methyl-1′,1′-dioxidospiro[cyclopropane-1,4′-pyrido[2,3-b][1,4,5]oxathiazepin]-2′(3′H)-yl)methyl)-4-methylphenyl)-2,2-dimethyl-3-(8-methyl-3-(trifluoromethyl)-[1,2,4]triazolo[4,3-a]pyridine-7-yl)propanoic Acid]	308
< 1	Cc1cnc2c(c1)S(=O)(=O)N(Cc1cc([C@@H](c3ccn4c(C5CC5)nnc4c3C)C(C)(C)C(=O)O)ccc1C)CC1(CC1)O2 (single isomer, unassigned) [Example 392, (*S)-3-(3-Cyclopropyl-8-methyl-[1,2,4]triazolo[4,3-a]pyridin-7-yl)-2,2-dimethyl-3-(4-methyl-3-((8′-methyl-1′,1′-dioxidospiro[cyclopropane-1,4′-pyrido[2,3-b][1,4,5]oxathiazepin]-2′(3′H)-yl)methyl)phenyl)propanoic Acid]	11.3
